This is an account of results in PubChem BioAssay (NCI).

Holding throughout (experiment): NCI tumour cell line growth inhibition, 48 h
Assay [1] concerns UACC-257 melanoma.
Assay [2] has as its system SF-295 CNS.
Assay [3] concerns M14 melanoma.
Assay [4] relates to SK-MEL-2 melanoma.
Assay [5] has as its system SK-OV-3 ovarian.
Assay [6] deals with NCI-H522 lung.
In assay [7] the test system is RPMI-8226 leukemia.
The subject of assay [8] is NCI-H23 lung.
For assay [9], the system named is OVCAR-8 ovarian.
The subject of assay [10] is SN12C renal.

Each structure is given as a SMILES string.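 Interpolation was linear, between the two tested concentrations surrounding the appropriate level; five concentrations were tested over 48 hours in 96-well plates. At the GI50, growth is halved. TGI is the concentration that stops growth completely.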

In the case of `CNCC1CCn2c(c(C3=C(c4cn(C)c5ccccc45)C(=O)NC3=O)c3ccccc32)C1` (stereo not given), the GI50 in assay [1] was 3.56 µM; in [2], 2.49 µM; in assay [3], 3050 nM; in [4] it was 3.33 µM; in [5], 5.18 µM; in assay [6] it was 3.09 µM. Moreover, the GI50 in assay [7] is 3.85 µM; in assay [8], 2990 nM; in [9], 3.87 µM; in [10], 2.87 µM. The TGI worked out at 7.55 µM in [1]; 6.38 µM in assay [2]; 6.78 µM in assay [3]; 7.07 µM in assay [4]; 16.4 µM in [5]; 6.49 µM in assay [6]. Also, the TGI in [7] was 9.86 µM; in assay [8], 8.03 µM; in assay [9] it was 10.4 µM; in assay [10], 9.28 µM.
Take `CCCCCCC(=O)CC(=O)C(=O)Nc1ccccc1C`: the TGI in assay [1], in assay [2], in assay [3], in assay [4], in assay [5] and in [6] was over 100 µM throughout. The TGI in [7], in assay [8], in assay [9] and in assay [10] was over 100 µM throughout.
As to `Nc1ncnc2c1ncn2COC/C=C/I`, the TGI in [1], in assay [2], in assay [3], in assay [4], in assay [5] and in [6] was over 100 µM throughout. Moreover, the TGI in assay [7], in assay [8], in [9] and in [10] was over 100 µM each time.
In the case of `CCC(=O)Oc1ccc(/C=N/NC(N)=S)nc1`, the GI50 was 21.5 µM in assay [1]; 12.3 µM in [2]; 2010 nM in assay [3]; 33 µM in [4]; 29.7 µM in [5]; 4.58 µM in assay [6]. Besides, the GI50 in assay [7] was 28.5 µM; in assay [8], 2480 nM; in assay [9] it was 3.51 µM; in assay [10], 3.75 µM. For the same compound, the TGI is over 100 µM in assay [1]; over 100 µM in [2]; 5.59 µM in assay [3]; over 100 µM in assay [4]; over 100 µM in assay [5]; 76.5 µM in assay [6]. Further, the TGI in assay [7], in assay [8], in [9] and in assay [10] was over 100 µM each time.
With `CC1=C(C(=O)NCc2ccccc2)C(c2ccccc2O)C(C(=O)NCc2ccccc2)=C(C)N1`, the TGI was over 31.6 µM in assay [1]; 44.7 µM in [2]; 32.4 µM in assay [3]; 32.6 µM in assay [4]; 64.9 µM in [5]; 31.4 µM in [6]. In addition, the TGI in assay [7] is over 100 µM; in [8], 34.1 µM; in [9] it was 40.9 µM; in assay [10] it was 32.3 µM.
In the case of `O=C1/C(=C/c2cccc(F)c2)CN(C(=O)C(Cl)Cl)C/C1=C\c1cccc(F)c1`, the GI50 in assay [1] was 0.606 µM; in assay [2], 0.217 µM; in [3], 258 nM; in [4], 0.343 µM; in [5], 0.6 µM; in [6], 0.202 µM. In addition, the GI50 in assay [7] is 0.0318 µM; in assay [8], 234 nM; in assay [9], 0.184 µM; in [10] it was 0.189 µM. The TGI came out at 1.63 µM in assay [1]; 0.629 µM in assay [2]; 0.872 µM in [3]; 1.27 µM in assay [4]; 1.79 µM in [5]; 0.522 µM in [6]. In addition, the TGI in assay [7] was found to be 0.169 µM; in [8], 0.69 µM; in [9] it was 1.13 µM; in [10] it was 0.475 µM.
`CC(=O)Nc1ccccc1S(=O)c1ccccc1` (stereo not given): the TGI in [1], in [2], in assay [3], in assay [4], in assay [5] and in [6] was over 100 µM throughout. Moreover, the TGI in [7], in [8], in assay [9] and in assay [10] was over 100 µM in each case.
On to `COn1cc(C(=O)N=C(SC)SC)c2ccccc21`, for which the GI50 was 18.2 µM in assay [1]; 16.8 µM in assay [2]; 18400 nM in assay [3]; 17.6 µM in assay [4]; 50.6 µM in assay [5]; 13.1 µM in assay [6]. The GI50 is 17.9 µM in assay [7], 27200 nM in assay [8], 18.5 µM in assay [9] and 22.4 µM in assay [10]. Further, the TGI in assay [1] is 59.2 µM; in assay [2], 55.4 µM; in assay [3], 48.1 µM; in assay [4], 52 µM; in assay [5], over 100 µM; in assay [6], 42 µM. Besides, the TGI in assay [7] was over 100 µM; in assay [8], 60.3 µM; in [9], 55.5 µM; in assay [10] it was 74.3 µM.
Turning to `CC(C)Cn1cnc2c(SCc3ccccn3)nc(N)nc21`, the TGI in assay [1], in assay [2], in [3], in assay [4], in assay [5] and in assay [6] was over 100 µM throughout. Moreover, the TGI in assay [7], in [8], in assay [9] and in assay [10] was over 100 µM each time.
As for `Cc1ccccc1NC(=O)CC(=O)n1nc(-c2ccccc2)c(N=Nc2ccc([N+](=O)[O-])cc2)c1-c1ccccc1`, the TGI in assay [1] is 56.4 µM; in [2], 49.6 µM; in [3], 33.3 µM; in assay [4], over 100 µM; in [5], 57.7 µM; in assay [6], 45.5 µM. Further, the TGI in assay [7] was 69.4 µM; in [8] it was over 100 µM; in assay [9] it was over 100 µM; in assay [10], 58.4 µM.
